Assay results from the NIST ThermoML archive (doi:10.1016/j.jct.2016.12.012).
Values joined by “and” are separate entries in the source; they are usually repeats but may differ in a detail not shown here. Equal values may be shown once.

How the values were obtained:
[1] = for Normal melting temperature: DTA; for Triple point temperature: DSC
[2] = Molar enthalpy of transition or fusion; details: DSC

CC(=O)Oc1cccc(C(C)=O)c1 [3-acetoxyacetophenone]
[1], Crystal 2, Calculated from knudsen effusion weight loss
Details | vapor or sublimation pressure
297.65 K | 0.000123 kPa and 0.000124 kPa
299.16 K | 0.000153 kPa and 0.000152 kPa
300.09 K | 0.000169 kPa and 0.000167 kPa and 0.000168 kPa
301.23 K | 0.000194 kPa and 0.000196 kPa
302.21 K | 0.00023 kPa
303.25 K | 0.000262 kPa and 0.000259 kPa
304.24 K | 0.000293 kPa and 0.00029 kPa
305.23 K | 0.000337 kPa and 0.00034 kPa and 0.000334 kPa
306.24 K | 0.000387 kPa and 0.000383 kPa and 0.000389 kPa
307.26 K | 0.000436 kPa and 0.000441 kPa and 0.000434 kPa

[1]
Details | vapor or sublimation pressure [kPa]
305.09 K, Metastable liquid, Closed cell (Static) method | 0.00046
307.07 K, Metastable liquid, Closed cell (Static) method | 0.00055
309.03 K, Metastable liquid, Closed cell (Static) method | 0.00067
311.04 K, Metastable liquid, Closed cell (Static) method | 0.00082
312.98 K, Metastable liquid, Closed cell (Static) method | 0.001
315.01 K, Closed cell (Static) method, Liquid | 0.00122
317.02 K, Closed cell (Static) method, Liquid | 0.00147
319.06 K, Closed cell (Static) method, Liquid | 0.00173
320.99 K, Closed cell (Static) method, Liquid | 0.00206
323.04 K, Closed cell (Static) method, Liquid | 0.00247
324.96 K, Closed cell (Static) method, Liquid | 0.00291
326.99 K, Closed cell (Static) method, Liquid | 0.00346
328.93 K, Closed cell (Static) method, Liquid | 0.0041
330.94 K, Closed cell (Static) method, Liquid | 0.00489
332.92 K, Closed cell (Static) method, Liquid | 0.00565
334.91 K, Closed cell (Static) method, Liquid | 0.00677
336.87 K, Closed cell (Static) method, Liquid | 0.00798
338.84 K, Closed cell (Static) method, Liquid | 0.00935
340.83 K, Closed cell (Static) method, Liquid | 0.01079
342.8 K, Closed cell (Static) method, Liquid | 0.01271
344.79 K, Closed cell (Static) method, Liquid | 0.01475
346.92 K, Closed cell (Static) method, Liquid | 0.01728
348.74 K, Closed cell (Static) method, Liquid | 0.01981
350.69 K, Closed cell (Static) method, Liquid | 0.02301
352.67 K, Closed cell (Static) method, Liquid | 0.02636
354.64 K, Closed cell (Static) method, Liquid | 0.03047
356.61 K, Closed cell (Static) method, Liquid | 0.0348
358.61 K, Closed cell (Static) method, Liquid | 0.03975
360.51 K, Closed cell (Static) method, Liquid | 0.04544
362.54 K, Closed cell (Static) method, Liquid | 0.05195
364.52 K, Closed cell (Static) method, Liquid | 0.05948
366.49 K, Closed cell (Static) method, Liquid | 0.06748
368.46 K, Closed cell (Static) method, Liquid | 0.07663

Details | Molar enthalpy of transition or fusion, [2] [kcal/mol] | Normal melting temperature, [1] [°C] | Triple point temperature, [1] [K]
Crystal 1 | 5.54 | 43.1 | –
Crystal 2 | 0.239 | – | 308.1

CC(=O)Oc1ccc(C(C)=O)cc1 [4-acetoxyacetophenone]
[1]
Details | vapor or sublimation pressure
298.12 K, Crystal 2, Calculated from knudsen effusion weight loss | 9.3e-05 kPa
299.15 K, Crystal 2, Calculated from knudsen effusion weight loss | 0.000105 kPa and 0.000106 kPa
300.3 K, Crystal 2, Calculated from knudsen effusion weight loss | 0.000123 kPa
301.34 K, Crystal 2, Calculated from knudsen effusion weight loss | 0.000143 kPa and 0.000142 kPa and 0.000141 kPa
302.25 K, Crystal 2, Calculated from knudsen effusion weight loss | 0.000159 kPa
303.23 K, Crystal 2, Calculated from knudsen effusion weight loss | 0.000185 kPa and 0.000184 kPa
304.1 K, Crystal 2, Calculated from knudsen effusion weight loss | 0.000202 kPa and 0.000205 kPa
305.13 K, Crystal 2, Calculated from knudsen effusion weight loss | 0.00023 kPa and 0.000232 kPa and 0.000229 kPa
306.26 K, Crystal 2, Calculated from knudsen effusion weight loss | 0.000268 kPa and 0.000266 kPa
307.14 K, Crystal 2, Calculated from knudsen effusion weight loss | 0.0003 kPa and 0.000301 kPa
308.25 K, Crystal 2, Calculated from knudsen effusion weight loss | 0.000347 kPa and 0.000346 kPa
309.29 K, Crystal 2, Calculated from knudsen effusion weight loss | 0.000397 kPa and 0.000395 kPa and 0.000394 kPa
315 K, Crystal 1, Closed cell (Static) method | 0.00078 kPa
316 K, Crystal 1, Closed cell (Static) method | 0.00087 kPa
317 K, Crystal 1, Closed cell (Static) method | 0.00098 kPa
317.96 K, Crystal 1, Closed cell (Static) method | 0.00109 kPa
318.99 K, Crystal 1, Closed cell (Static) method | 0.00123 kPa
319.96 K, Crystal 1, Closed cell (Static) method | 0.00139 kPa
321.01 K, Crystal 1, Closed cell (Static) method | 0.00155 kPa
321.89 K, Crystal 1, Closed cell (Static) method | 0.00173 kPa
322.88 K, Crystal 1, Closed cell (Static) method | 0.00195 kPa
323.91 K, Crystal 1, Closed cell (Static) method | 0.00218 kPa

[1], Liquid, Closed cell (Static) method
Details | vapor or sublimation pressure [kPa]
328.88 K | 0.00341
330.91 K | 0.00406
332.89 K | 0.00478
334.84 K | 0.00555
336.85 K | 0.00658
338.81 K | 0.00777
340.85 K | 0.00908
342.77 K | 0.01045
344.77 K | 0.01225
346.74 K | 0.01408
348.68 K | 0.01633
350.65 K | 0.01885
352.66 K | 0.02182
354.62 K | 0.02505
356.57 K | 0.02907
358.59 K | 0.03305
360.49 K | 0.03795
362.51 K | 0.04335
364.46 K | 0.04961
366.46 K | 0.05645
368.38 K | 0.06404
370.41 K | 0.07307
372.31 K | 0.08205
374.34 K | 0.09319
376.33 K | 0.1048
378.32 K | 0.1186

Details | Molar enthalpy of transition or fusion, [2] [kcal/mol] | Normal melting temperature, [1] [°C] | Triple point temperature, [1] [K]
Crystal 1 | 4.97 | 51.0 | –
Crystal 2 | 0.143 | – | 310.1
